± gives the expanded uncertainty stated by the source.
How the values were obtained:
[1] = Molar enthalpy of transition or fusion; details: DSC
[2] = DTA

Molar enthalpy of transition or fusion ([1]; Crystal) [kcal/mol]	Normal melting temperature ([2]; Crystal) [°C]	Molar enthalpy of transition or fusion ([1]; Crystal 1) [kcal/mol]	Molar enthalpy of transition or fusion ([1]; Crystal 2) [kcal/mol]	Normal melting temperature ([2]; Crystal 1) [°C]	Triple point temperature ([2]; Crystal 2) [K]	Molar enthalpy of transition or fusion ([1]; Crystal 3) [kcal/mol]	Triple point temperature ([2]; Crystal 3) [K]	SMILES
4.76 ± 0.12	128.5 ± 0.9							CC(C)C(N)=O [2-methylpropanamide]
		5.38 ± 0.311	0.418 ± 0.105	125.1 ± 0.5	360.6 ± 0.9			CCCC(CCC)C(N)=O [2-propylpentanamide]
		3.87 ± 0.12	0.813 ± 0.0478	95.5 ± 1.1	356.1 ± 0.5	1.79 ± 0.143	319 ± 1.6	CCCCCCC(N)=O [heptanamide]
		4.02 ± 0.167	1.22 ± 0.0717	99.2 ± 2.8	306.1 ± 0.5			CCCCCC(N)=O [hexanamide]
